The text below walks through data of US20030194738A1, “Antisense oligonucleotide compositions and methods for the modulation of activating protein 1” (priority 1997, published 2003).

Entries after “also recorded” stand apart in the source; their conditions may differ. Strand notation (5' to 3'): a small letter for the sugar, then the base; units joined by * are phosphorothioate-linked, units joined directly phosphodiester-linked; [ ] holds rarer units or linkages, { } end groups; capitals alone tell only the bases. d = 2'-deoxy (DNA)

One series relates to c-Jun. Nature of the series: Induction of c-Jun by TNF-a, IL-1b or TGF-b in A549 cells. The series is classed as cell-based, human. The following applies: for c-Jun induction by IL-1b: inducer IL-1b 10 ng/ml, No Oligo = 100, basal = 9; for c-Jun induction by TGF-b: inducer TGF-b 10 ng/ml, No Oligo = 100, basal = 2; for c-Jun induction by TNF-a: inducer TNF-a 10 ng/ml, No Oligo = 100, basal = 5. The method, then:
Inducing agents other than TPA function to raise AP-1 levels in vivo. In order to assess the ability of oligonucleotides targeted to AP-1 to antagonize the action of three such inducers, A549 cells were treated and evaluated as in Examples 2 et seq. with the exception that TNF-a, IL-1b or TGE-b (each at 10 ng/mi and all from R&D Systems, Minneapolis, Minn.) were used in place of TPA as inducers.

Another series concerns c-fos mRNA. The series can be described thus: c-fos mRNA expression in TPA-induced A549 cells, Northern blotting. Type of series: cell-based, human. To be noted: A549 cells; for c-fos (mRNA level, specificity experiment): Table 5, TPA - no oligo = 100, basal = 5. How it is done: (§1) In order to evaluate the activity of potential c-fos and c-jun modulating oligonucleotides, A549 cells were grown in T-75 flasks until 80-90% confluent. (Cell line A549 is available from, inter alia, the American Type Culture Collection, Rockville, Md., as ATCC No. CCL-185.) At this time, the cells were washed twice with 10 mL of media (DMEM), followed by the addition of 5 mL of DMEM containing 20 μg/mL of LIPOFECTIN™ (i.e., DOTMA/DOPE (N-[1-(2,3-dioleyloxy)propyl]-N,N,N-[…] chloride/dioleoylphosphatidyl ethanolamine)). The oligonucleotides were added from a 10 μM stock solution to a final concentration of 400 nM, and the two solutions were mixed by swirling the flasks. After 4 hours at 37° C., the medium was replaced with DMEM containing 10% serum. At this point, 1 μM 12-O-tetradecanoylphorbol 13-acetate (TPA) was added to induce expression of c-fos and c-jun. Cells were extracted in guanidinium one hour later, and the c-fos and c-jun mRNA expression was determined by Northern blotting. Probes for human c-jun and c-fos were PCR products prepared using primers based on the published sequences thereof (respectively, Hattori et al., Proc. Natl. Acad. Sci. U.S.A., 1988, 85:9148, and Van Straaten et al., Proc. Natl. Acad. Sci. U.S.A., 1983, 80:3183).
Finally, it can also be seen from Table 5 that neither active oligonucleotide has any detectable effect on mRNA levels of the other active oligonucleotide's target.
Once oligonucleotides that modulate c-Fos or c-Jun are identified, derivative or modified oligonucleotides having the same sequence thereas are prepared. In order to evaluate the effect of chemical modifications to oligonucleotides to c-fos and c-jun, the modified oligonucleotides described in Tables 8 and 9 were prepared. The effect of the c-fos-targeted oligonucleotides on c-fos RNA levels were evaluated as described in Examples 2-3. […] Other modified oligonucleotides of the invention are evaluated in like fashion. In order to evaluate the effect of PNA antisense analogs, the PNA analogs of the invention are introduced into appropriate cell lines by microinjection according to the method of Hanvey et al. (Science, 1992, 258:1481). Intracellular delivery of PNA analogs is confirmed by the use of a fluorescently tagged PNA antisense analog conjugate such as, e.g., ISIS 14240.

In another series the test system is MMP-9. Nature of the series: MMP-9 expression in TPA-induced normal human epidermal keratinocytes. Type of series: cell-based. The following applies: for MMP-9 (expression): Table 17, NHEK cells harvested 24 hours after TPA treatment for 4 hours, TPA - no oligo = 100, basal = 4. From the text:
The matrix metalloproteinases (MMPs) are a family of enzymes which have the ability to degrade components of the extracellular matrix (Birkedal-Hansen, Current Op. Biol., 1995, 7, 728). […] In particular, one member of this family, matrix metalloproteinase-9 (MMP-9), is often found to be expressed only in tumors and other diseased tissues (Himeistein et al., Invasion & Metastasis, 1994, 14, 246). Several studies have shown that regulation of the MMP-9 gene may be controlled by the AP-1 transcription factor (Kerr et al., Science, 1988, 242, 1242; Kerr et al., Cell, 1990, 61, 267; Gum et al., J. Biol. Chem., 1996, 271, 10672; Hua et al., Cancer Res., 1996, 56, 5279). In order to determine whether MMP-9 expression can be influenced by AP-1 modulation, the following experiments were conducted on normal human epidermal keratinocytes (NHEKs). Although NHEKs normally express no detectable MMP-9, MMP-9 can be induced by a number of stimuli, including TPA. ISIS 10582, an oligonucleotide targeted to c-jun, was evaluated for its ability to modulate MMP-9 expression according to the protocols described in Examples 2-3 with the following exceptions: (1) NHEK cells were used instead of A549 cells, (2) the probe used, a PCR product prepared using the published sequence of the MMP-9 gene (Huhtala et al., J. Biol. Chem., 1991, 266:16485; Sato et al., Oncogene, 1993, 8:395), is specific for MMP-9 rather than c-jun, and (3) the cells were harvested 24 hours after TPA treatment for 4 hours.

For the next series, the system named is c-Fos protein. The series can be described thus: c-Fos protein levels in TPA-induced A549 cells, immunoblot. The series is classed as cell-based, human. To be noted: Table 7; TPA (1 uM) for three hours; TPA - no oligo = 100, basal = 21. How it is done: The ability of the c-fos active oligonucleotide ISIS 10639 to reduce expression of the c-Fos protein was examined as follows. A549 cells were treated with oligonucleotides as in Examples 2-3, except that induction of c-Fos was effected by treatment of cells with TPA (1 uM) for three hours. At this time, whole cell protein was extracted in SDS (sodium dodecyl sulfate) buffer. Samples of extracts were electrophoresed, transferred to nitrocellulose filters which were immunoblotted using a c-Fos-specific antibody (Santa Cruz AB, Santa Cruz, Calif.).
Background: In western blotting, separated proteins are transferred to a membrane and probed.

The test system of another series is c-jun mRNA. The series can be described thus: c-jun mRNA expression in TPA-induced A549 cells, Northern blotting. Type of series: cell-based, human. To be noted: for c-jun (mRNA level, specificity experiment): Table 5, TPA - no oligo = 100, basal = 23; for c-jun (mRNA level, specificity experiment) / c-jun mRNA LEVELS (% CONTROL) / effect on c-jun mRNA levels during TPA induction (in words): A549 cells; for c-jun mRNA LEVELS (% CONTROL): TPA induction, 1 hour; for c-jun mRNA % CONTROL: 400 nM oligonucleotide with LIPOFECTIN, control is TPA induction, at 1 hour, in A549 cells. The method, then:
as §1, with “The oligonucleotides were added from a 10 μM stock solution to a final concentration of 400 nM, and the two solutions were mixed by swirling the flasks.” left out

For the substance “CAC-CTC-CAC-GCG-CTT-CTG-GC (dC*dA*dC*dC*dT*dC*dC*dA*dC*dG*dC*dG*dC*dT*dT*dC*dT*dG*dG*dC; antisense) [ISIS 11563]”, in the series with c-Jun, the “stimulation / induction of c-Jun by TNF-a or IL-1b (in words)” value is “did not reverse”, the “c-Jun induction by IL-1b” value amounted to 94, the “c-Jun induction by TGF-b” value is listed as 99 and the “c-Jun induction by TNF-a” value was 98. Besides, the “c-fos (mRNA level, specificity experiment)” value in the series on c-fos mRNA was 99. The “MMP-9 (expression)” value in the series on MMP-9 came out at 95.

For the substance “ACG-TCC-GAT-TCC-GAG-CGC-AA (ACGTCCGATTCCGAGCGCAA; antisense; DNA, all phosphorothioate, methylation of C not given here) [ISIS 11186]”, the “c-Fos (protein level)” value in the series with c-Fos protein is 99. Moreover, in the series with c-fos mRNA, the “effect on c-fos mRNA levels during TPA induction (in words)” value was “no detectable effect” and the “c-fos (mRNA level, specificity experiment)” value came out at 98. Besides, the “c-jun (mRNA level, specificity experiment)” value in the series on c-jun mRNA is listed as 99.

For “ATG-TGC-TAG-ATG-CGC-AAA-GT (ATGTGCTAGATGCGCAAAGT; antisense; DNA, all phosphorothioate, methylation of C not given here) [ISIS 11185]”, the “c-Fos (protein level)” value in the series on c-Fos protein is on record as 91. For the same substance, in the series with c-fos mRNA, the “effect on c-fos mRNA levels during TPA induction (in words)” value is reported as “no detectable effect” and the “c-fos (mRNA level, specificity experiment)” value was 93. For the same substance, the “c-jun (mRNA level, specificity experiment)” value in the series with c-jun mRNA is 98.

On to “GAG-AGA-CCG-TCG-GGC-GCT-GA (GAGAGACCGTCGGGGGCTGA; listed as DNA, chemistry not given here) [ISIS 11562]”, for which the “c-fos (mRNA level, specificity experiment)” value in the series on c-fos mRNA is recorded as 89. Also, the “MMP-9 (expression)” value in the series on MMP-9 was found to be 99.

Turning to “GCT-GTG-GGC-CTC-AAG-GAC-TT (GCTGTGGGCCTCAAGGACTT; antisense; DNA, all phosphorothioate, methylation of C not given here) [ISIS 11184]”, the “c-Fos (protein level)” value in the series with c-Fos protein came to 97. For the same substance, in the series with c-fos mRNA, the “effect on c-fos mRNA levels during TPA induction (in words)” value is “no detectable effect” and the “c-fos (mRNA level, specificity experiment)” value is given as 84. For the same substance, the “c-jun (mRNA level, specificity experiment)” value in the series on c-jun mRNA is given as 91.

In the case of “TCA-GCC-CCC-GAC-GGT-CTC-TC (dT*dC*dA*dG*dC*dC*dC*dC*dC*dG*dA*dC*dG*dG*dT*dC*dT*dC*dT*dC; antisense) [ISIS 10582]”, in the series with c-Jun, the “stimulation / induction of c-Jun by TNF-a or IL-1b (in words)” value is recorded as “effectively reduces”, the “c-Jun induction by IL-1b” value was determined as 15, the “c-Jun induction by TGF-b” value was determined as 95 and the “c-Jun induction by TNF-a” value stood at 20. Further, in the series with c-fos mRNA, the “effect on c-fos mRNA levels during TPA induction (in words)” value was “no detectable effect” and the “c-fos (mRNA level, specificity experiment)” value is listed as 91. Moreover, in the series with MMP-9 (NHEK cells), the “expression of MMP-9 after induction with TPA (in words)” value was “completely inhibit”. Moreover, in the series with MMP-9, the “MMP-9 (expression)” value stood at 6. In addition, the “c-jun mRNA LEVELS (% CONTROL)” value in the series on c-jun mRNA (50 nM oligonucleotide) was determined as 72 % CONTROL. In addition, the “c-jun mRNA LEVELS (% CONTROL)” value in the series with c-jun mRNA (100 nM oligonucleotide) is 45.5 % CONTROL. In addition, the “c-jun mRNA LEVELS (% CONTROL)” value in the series with c-jun mRNA (200 nM oligonucleotide) turned out to be 29.5 % CONTROL. For the same substance, in the series on c-jun mRNA, the “c-jun mRNA % CONTROL” value was 17 % CONTROL; the “effect on c-jun mRNA levels during TPA induction (in words)” value is “dose-dependent; also recorded: potent and specific inhibition”; the “c-jun (mRNA level, specificity experiment)” value is listed as 4. The “inhibition of c-jun mRNA expression” value in the series with c-jun mRNA (400 nM oligonucleotide, TPA-induced A549 cells) was 83%. Further, the “c-jun mRNA LEVELS (% CONTROL)” value in the series with c-jun mRNA (400 nM oligonucleotide) came out at 16 % CONTROL.

Turning to “TCG-GCA-CCT-GAA-GGA-CTT-TC (dT*dC*dG*dG*dC*dA*dC*dC*dT*dG*dA*dA*dG*dG*dA*dC*dT*dT*dT*dC; antisense) [ISIS 11564]”, the “c-fos (mRNA level, specificity experiment)” value in the series with c-fos mRNA is given as 99. For the same substance, the “MMP-9 (expression)” value in the series on MMP-9 came out at 89. In addition, in the series on c-jun mRNA, the “effect on c-jun mRNA levels during TPA induction (in words)” value was “no detectable effect” and the “c-jun (mRNA level, specificity experiment)” value is recorded as 71.

Take “CGC-CCC-GCC-GCC-GCT-GCT-CA (dC*dG*dC*dC*dC*dC*dG*dC*dC*dG*dC*dC*dG*dC*dT*dG*dC*dT*dC*dA; antisense) [ISIS 10579]”: the “c-jun mRNA % CONTROL” value in the series with c-jun mRNA was determined as 41 % CONTROL.
